GI50 and TGI data for nine compounds are collected here from PubChem BioAssay (NCI).

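Protocol summary: plate cells (96-well), add compound at 5 concentrations, incubate 48 h, interpolate endpoints linearly. GI50 marks 50% less growth. TGI is the concentration that stops growth completely.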

Among the test systems are HOP-92 NSCLC; SF-539 CNS; SF-295 CNS; NCI-H226 lung; NCI-H460 lung; MOLT-4 leukemia; M14 melanoma; RPMI-8226 leukemia; SK-OV-3 ovarian; SF-268 CNS.
Common to all, as to assay: NCI tumour cell line growth inhibition, 48 h

With `OC(CNC1CCCC1)Cn1c2ccccc2c2ccccc21` (centres undefined), the GI50 with HOP-92 NSCLC is 14.9 µM; in the experiment on SF-539 CNS, 24.4 µM; with SF-295 CNS, 23.7 µM; in the experiment on NCI-H226 lung, 32.1 µM; with NCI-H460 lung, above 100 µM; in the experiment on MOLT-4 leukemia, above 100 µM. Besides, the GI50 in the experiment with M14 melanoma was above 100 µM; in the experiment on RPMI-8226 leukemia it was above 100 µM; with SK-OV-3 ovarian, 20.4 µM; with SF-268 CNS it was 27 µM. Moreover, the TGI in the experiment on HOP-92 NSCLC was 34.7 µM; with SF-539 CNS, 82.9 µM; in the experiment on SF-295 CNS it was 73.5 µM; with NCI-H226 lung it was above 100 µM; in the experiment with NCI-H460 lung, above 100 µM; in the experiment with MOLT-4 leukemia it was above 100 µM. Further, the TGI was above 100 µM with M14 melanoma, above 100 µM with RPMI-8226 leukemia, 43.4 µM with SK-OV-3 ovarian and 80.4 µM with SF-268 CNS.
For `O=P1(O)c2ccccc2Nc2cc(C(F)(F)F)ccc21`, the TGI in the experiment on HOP-92 NSCLC, in the experiment on SF-539 CNS, in the experiment on SF-295 CNS, in the experiment with NCI-H226 lung, with NCI-H460 lung and in the experiment on MOLT-4 leukemia was above 100 µM each time. Also, the TGI in the experiment with M14 melanoma, in the experiment on RPMI-8226 leukemia, with SK-OV-3 ovarian and in the experiment with SF-268 CNS was above 100 µM in each case.
In the case of `COc1ccc2c(c1)OC(N)=C(C#N)C2c1ccc(F)cc1` (centres undefined), the GI50 with HOP-92 NSCLC is 8.52 µM; with SF-539 CNS, 1.64 µM; with SF-295 CNS, 1.96 µM; in the experiment on NCI-H226 lung, 20.7 µM; with NCI-H460 lung, 2.05 µM; with MOLT-4 leukemia, 1.32 µM. Besides, the GI50 in the experiment with M14 melanoma was 0.529 µM; with RPMI-8226 leukemia it was 2.43 µM; in the experiment on SK-OV-3 ovarian, 2.94 µM; with SF-268 CNS it was 7.38 µM. Also, the TGI is 75.5 µM with HOP-92 NSCLC; 6.58 µM in the experiment with SF-539 CNS; 37.2 µM with SF-295 CNS; above 100 µM in the experiment on NCI-H226 lung; above 100 µM with NCI-H460 lung; above 100 µM with MOLT-4 leukemia. Moreover, the TGI was 44.2 µM with M14 melanoma, 19.9 µM in the experiment with RPMI-8226 leukemia, 66.3 µM in the experiment with SK-OV-3 ovarian and above 100 µM in the experiment with SF-268 CNS.
In the case of `CCOc1ccccc1NC(=O)C1=C(C)NC(C)=C(C(=O)Nc2ccccc2OCC)C1c1ccc(NC(C)=O)cc1`, the TGI in the experiment with HOP-92 NSCLC was above 100 µM; with SF-539 CNS, above 100 µM; with SF-295 CNS it was 71.5 µM; in the experiment with NCI-H226 lung, above 100 µM; with NCI-H460 lung, above 100 µM; with MOLT-4 leukemia, above 100 µM. The TGI with M14 melanoma was above 100 µM; in the experiment on RPMI-8226 leukemia, above 100 µM; with SK-OV-3 ovarian, 67.5 µM; in the experiment with SF-268 CNS it was above 100 µM.
Take `O=C(/C=C/c1ccc(C(F)(F)F)cc1)c1ccc(Nc2nc(NCCO)nc(N3CCOCC3)n2)cc1`: the GI50 with HOP-92 NSCLC is 2.48 µM; in the experiment on SF-539 CNS it was 1.64 µM; with SF-295 CNS, 2.67 µM; in the experiment with NCI-H226 lung, 2.32 µM; with NCI-H460 lung, 2.15 µM; in the experiment on MOLT-4 leukemia, 2.45 µM. Also, the GI50 in the experiment on M14 melanoma is 2.01 µM; in the experiment with RPMI-8226 leukemia, 2.07 µM; with SK-OV-3 ovarian it was 3.82 µM; in the experiment with SF-268 CNS it was 2.68 µM. The TGI with HOP-92 NSCLC amounted to 9.2 µM; with SF-539 CNS, 3.06 µM; in the experiment on SF-295 CNS, 7.6 µM; in the experiment on NCI-H226 lung, 5.89 µM; with NCI-H460 lung, 4.44 µM; in the experiment with MOLT-4 leukemia, 9.05 µM. The TGI with M14 melanoma was 4.28 µM; with RPMI-8226 leukemia, 5.71 µM; with SK-OV-3 ovarian it was above 100 µM; with SF-268 CNS, 11.1 µM.
In the case of `O=Cc1ccc(O)c2ncccc12`, the GI50 with HOP-92 NSCLC was 5.01 µM; in the experiment on SF-539 CNS it was 3.33 µM; in the experiment on SF-295 CNS it was 2.12 µM; with NCI-H226 lung it was 4.88 µM; in the experiment on NCI-H460 lung it was 3.47 µM; in the experiment with M14 melanoma, 2.99 µM. The GI50 was 2.2 µM in the experiment with RPMI-8226 leukemia, 10.8 µM with SK-OV-3 ovarian and 2.65 µM in the experiment on SF-268 CNS. Besides, the TGI in the experiment on HOP-92 NSCLC was above 73.5 µM; in the experiment on SF-539 CNS, 19.3 µM; with SF-295 CNS it was 13.1 µM; with NCI-H226 lung it was above 79.1 µM; in the experiment on NCI-H460 lung, 17.2 µM; in the experiment on MOLT-4 leukemia, above 38.8 µM. Besides, the TGI with M14 melanoma is 26.1 µM; in the experiment on RPMI-8226 leukemia it was 15.8 µM; with SK-OV-3 ovarian it was 39.3 µM; with SF-268 CNS it was above 100 µM.
Turning to `Cc1ccc(N2C(=O)/C(=C/c3ccc(N(CCC#N)CCC#N)cc3C)N=C2c2cc([N+](=O)[O-])ccc2Cl)cc1`, the TGI with HOP-92 NSCLC, in the experiment on SF-539 CNS, in the experiment with SF-295 CNS, in the experiment with NCI-H226 lung, in the experiment on NCI-H460 lung and in the experiment with MOLT-4 leukemia was above 100 µM in each case. Besides, the TGI in the experiment with M14 melanoma, with RPMI-8226 leukemia, in the experiment with SK-OV-3 ovarian and in the experiment with SF-268 CNS was above 100 µM each time.
For the compound `C=C1CC[C@@H]2[C@](C)(COC(C)=O)[C@H](OC(C)=O)CC[C@@]2(C)[C@@H]1C/C=C1/C(=O)OC[C@H]1OC(C)=O`, the GI50 was 13.2 µM with HOP-92 NSCLC; 1.7 µM with SF-539 CNS; 13.3 µM with SF-295 CNS; 2.14 µM in the experiment with NCI-H226 lung; 18.6 µM with NCI-H460 lung; 3.8 µM with MOLT-4 leukemia. Besides, the GI50 in the experiment with M14 melanoma is 2.22 µM; in the experiment on RPMI-8226 leukemia it was 2.06 µM; in the experiment with SK-OV-3 ovarian it was 19.1 µM; in the experiment with SF-268 CNS, 8.56 µM. In addition, the TGI in the experiment with HOP-92 NSCLC is 26.4 µM; in the experiment on SF-539 CNS it was 3.22 µM; with SF-295 CNS, 26.8 µM; with NCI-H226 lung, 5.42 µM; in the experiment on NCI-H460 lung it was 37.7 µM; in the experiment on MOLT-4 leukemia, 16.1 µM. For the same compound, the TGI in the experiment with M14 melanoma is 6.48 µM; in the experiment on RPMI-8226 leukemia, 7.68 µM; with SK-OV-3 ovarian, 36.3 µM; in the experiment on SF-268 CNS, 22.8 µM.
Regarding `COC(=O)c1cc2oc(/C=C3\SC(=S)N(NC(C)=O)C3=O)cc2n1Cc1ccccc1`, the GI50 with HOP-92 NSCLC is 0.196 µM; with SF-539 CNS, 2.79 µM; in the experiment with SF-295 CNS it was 2.11 µM; in the experiment with NCI-H226 lung, 9.72 µM; in the experiment on NCI-H460 lung, 1.28 µM; with MOLT-4 leukemia, 1.97 µM. In addition, the GI50 in the experiment with M14 melanoma was 8.04 µM; in the experiment with RPMI-8226 leukemia, 0.758 µM; in the experiment on SK-OV-3 ovarian, 6.33 µM; with SF-268 CNS, 4.16 µM. The TGI is 2.59 µM in the experiment with HOP-92 NSCLC; 14 µM in the experiment on SF-539 CNS; 15.6 µM with SF-295 CNS; 22.4 µM with NCI-H226 lung; 37.1 µM in the experiment with NCI-H460 lung; above 50 µM with MOLT-4 leukemia. Further, the TGI amounted to 16.4 µM in the experiment with M14 melanoma, 5.55 µM in the experiment with RPMI-8226 leukemia, 15.5 µM in the experiment on SK-OV-3 ovarian and 27.6 µM in the experiment on SF-268 CNS.
